Assay results from patent US20260151504A1, “SYNTHETIC CELLS COMPRISING TNF-RELATED APOPTOSIS-INDUCING LIGAND (TRAIL) AND METHODS OF USING THE SAME” (Slingshot Biosciences, Inc., priority 2023, published 2026).

Assays:
[1] = tested on: Jurkat tumor cells; test: Annexin V / 7-AAD flow cytometry of Jurkat tumor cells treated with TRAIL delivery systems; format: cell-based; conditions: camptothecin 100 nM, percentage of cells
Method: (§1) Briefly, 100K live Jeko-1 or Jurkat cells were plated in RPMI media containing 10% Fetal bovine serum and 1% PenStrep in 100 μL volume.
(§2) Synthetic cytotoxic cells and equivalent total molecules of soluble TRAIL were plated 8 hours post seeding of tumor cells in 100 μL total volume. Amount of soluble TRAIL per well to match the amount of microsphere or bead-bound TRAIL was calculated as follows. Assuming 150K TRAIL molecules per microsphere/bead and 1e^6 microsphere/bead per well, 1.5e^11 soluble TRAIL molecules per well were used, which was calculated to be equivalent to 23 ng soluble TRAIL per well.
(§3) Twenty-four and forty-eight hours post incubation, cells were harvested and stained with Annexin V and 7-AAD. Anti-CD19 and Anti-CD3 antibodies were used to separate Jeko-1 cells from beads and Jurkat cells from beads, respectively. While Jeko-1 cells are CD19-expressing B-cells that are TRAIL-sensitive, Jurkat cells are CD3-expressing T cells that have low-moderate sensitivity to TRAIL. Determination of stage of cell death and % apoptotic cells were determined from the gating strategy outlined in FIG. 8. Samples were plated in duplicates and all sample acquisition was performed on the Cytoflex Beckman Coulter Flow Cytometer 24 hours and 48 hours post treatment of tumor cells with treatment conditions. Data analysis was further processed on FlowJo™ v10 software.

[2] = tested on: Jeko-1 tumor cells; test: Annexin V / 7-AAD flow cytometry of Jeko-1 tumor cells treated with TRAIL delivery systems; format: cell-based; conditions: camptothecin 100 nM, percentage of cells
Method: as §1, §2, §3

[3] = Table 4A, Jeko-1, 24 Hrs., TRAIL equivalent to 1.5e^11 molecules per well

`CC[C@@]1(O)C(=O)OCc2c1cc1n(c2=O)Cc2cc3ccccc3nc2-1` [Camptothecin, camptothecin] was tested, and the “Early Stage Apoptotic (7-AAD−/Annexin V+)” value (“Early Stage Apoptotic” for short) ([1]; Table 5A, 24 Hrs.) was 59.8, the “Late Stage Apoptotic (7-AAD+/Annexin V+)” value ([1]; Table 5A, 24 Hrs.) was 26.9 and the “Live Cells (7-AAD−/Annexin V−)” value ([1]; Table 5A, 24 Hrs.) was 13.1. For the same molecule, the “Necrotic (7-AAD+/Annexin V−)” value ([1]; Table 5A, 24 Hrs.) was 0.13, the “Early Stage Apoptotic” value ([1]; Table 5B, 48 Hrs.) was 25.5 and the “Late Stage Apoptotic (7-AAD+/Annexin V+)” value ([1]; Table 5B, 48 Hrs.) was 69.8. The “Live Cells (7-AAD−/Annexin V−)” value ([1]; Table 5B, 48 Hrs.) was 3.36, the “Necrotic (7-AAD+/Annexin V−)” value ([1]; Table 5B, 48 Hrs.) was 1.33 and the “Early Stage Apoptotic” value [2, 3] was 56.5. For the same molecule, the “Late Stage Apoptotic (7-AAD+/Annexin V+)” value [2, 3] was 39.5, the “Live Cells (7-AAD−/Annexin V−)” value [2, 3] was 3.88 and the “Necrotic (7-AAD+/Annexin V−)” value [2, 3] was 0.077. The “Early Stage Apoptotic” value ([2]; Table 4B, Jeko-1, 48 Hrs.) was 7.64, the “Late Stage Apoptotic (7-AAD+/Annexin V+)” value ([2]; Table 4B, Jeko-1, 48 Hrs.) was 91.0 and the “Live Cells (7-AAD−/Annexin V−)” value ([2]; Table 4B, Jeko-1, 48 Hrs.) was 1.19. The “Necrotic (7-AAD+/Annexin V−)” value ([2]; Table 4B, Jeko-1, 48 Hrs.) was 0.13.
